Experimental data: patent US20260226038A1, “NEW COMPOUNDS FOR TREATING STAPHYLOCOCCUS INFECTIONS” (AB2 THERAPEUTICS, S. L., priority 2023, published 2026)
Values after ≈ are worked out from the molar mass of the structure shown.

The compounds below were run on Staphylococcus aureus (assay: MIC test, microdilution method (CLSI)). Settings: ATCC strains of Staphylococcus aureus; 18-20 h at 37° C.; growth inhibited ≥80% compared to growth control.
Format: cell-based
Procedure: Experimental Procedure: MIC Test. Microdilution Method To evaluate the antimicrobial activity of the compounds, ATCC strains of Staphylococcus aureus were used. The minimal inhibitory concentrations (MICs) of the compounds were determined by microdilution assays, according to CLSI methodology. 3 mg of compound were weighted in a 4 mL glass vials and were dissolved in properly volume of DMSO 100% (Reference: […]-50, Sigma) to reach 12.8 mg/mL (Cmax). In 96-well plates U-form (Reference: 650161, Greiner Bio-One): • Dispense 50 μL of the assayed compounds prepared in DMSO 100% at 12.8 mg/mL in each well in column 1. (8 different compounds per plate, row 1 to row 8) • Dispense 25 μL of DMSO 100% in all wells in columns 2 to 12. • With a multichannel pipette, aspire 25 μL of column 1 and dispense in column 2. Mix the contents in column 2 several times and aspire 25 μL. Dispense in column 3. • Repeat the process until column 10. In column 10, aspire 25 μL of the content and discard. In 96-well plates U-form: • With a multichannel pipette (in dispensing mode), aspire a properly volume (consider the number of copies of the mother plate do you want to perform) of all wells in mother plate, to dispense 1 μL/well in daughter plates. Tecan instrument (FREEDOM EVO 100) was used to make the mother and daughter plates. Bacterial suspension will be prepared and normalized to 0.5 McFarland turbidity standard (aprox. 10^8 CFU/mL) using a physiological saline solution (sodium chloride 0.9%). Then, prepared a 1/1000 dilution (aprox. 10^5 CFU/mL) of the suspension in appropriate media (CLSI Standard) and inoculate 99 μL in each well in daughter plates (only columns 1 to 11) using a MultidropTM Combi Reagent Dispenser. In column 12, only 99 μL of media will be dispense as a sterility control. The final plate map is (all values in μg/mL): Plates will be incubated 18-20 h at 37° C. MIC values will be considered as the concentration of compounds at which the growth will be inhibited=>≥80%, compared to growth control.

MIC	SMILES
4 µg/mL (≈ 8.74 µM)	COc1ccccc1N(CCO)C(=O)Cc1noc(CN2C(=O)C(=O)N(CC3CC3)C2=O)n1 [Example 1, 2-(5-((3-(Cyclopropylmethyl)-2,4,5-trioxoimidazolidin-1-yl)methyl)-1,2,4-oxadiazol-3-yl)-N-(2-hydroxyethyl)-N-(2-methoxyphenyl)acetamide]
16 µg/mL (≈ 33.9 µM)	COc1ccccc1N(CCCO)C(=O)Cc1noc(CN2C(=O)C(=O)N(CC3CC3)C2=O)n1 [Example 4, 2-(5-((3-(cyclopropylmethyl)-2,4,5-trioxoimidazolidin-1-yl)methyl)-1,2,4-oxadiazol-3-yl)-N-(3-hydroxypropyl)-N-(2-methoxyphenyl)acetamide]
32 µg/mL (≈ 63.8 µM)	COc1ccccc1N(CCOCCO)C(=O)Cc1noc(CN2C(=O)C(=O)N(CC3CC3)C2=O)n1 [Example 5, 2-(5-((3-(cyclopropylmethyl)-2,4,5-trioxoimidazolidin-1-yl)methyl)-1,2,4-oxadiazol-3-yl)-N-(2-(2-hydroxyethoxy)ethyl)-N-(2-methoxyphenyl)acetamide]
8 µg/mL (≈ 18.1 µM)	CCN(C(=O)Cc1noc(CN2C(=O)C(=O)N(CC3CC3)C2=O)n1)c1ccccc1OC [Example 24, 2-(5-((3-(Cyclopropylmethyl)-2,4,5-trioxoimidazolidin-1-yl)methyl)-1,2,4-oxadiazol-3-yl)-N-ethyl-N-(2-methoxyphenyl)acetamide]
4 µg/mL (≈ 9.36 µM)	COc1ccccc1N(C)C(=O)Cc1noc(CN2C(=O)C(=O)N(CC3CC3)C2=O)n1 [Example 26, 2-(5-((3-(Cyclopropylmethyl)-2,4,5-trioxoimidazolidin-1-yl)methyl)-1,2,4-oxadiazol-3-yl)-N-(2-methoxyphenyl)-N-methylacetamide]
4 µg/mL (≈ 9.68 µM)	COc1ccccc1NC(=O)Cc1noc(CN2C(=O)C(=O)N(CC3CC3)C2=O)n1 [Example 27, 2-(5-((3-(Cyclopropylmethyl)-2,4,5-trioxoimidazolidin-1-yl)methyl)-1,2,4-oxadiazol-3-yl)-N-(2-methoxyphenyl)acetamide]
